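All cell lines were grown in 96-well plates and treated with compound for 48 hours. TGI marks complete inhibition of growth.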
How the values were obtained:
Experiment in all cases: inhibition of tumour cell growth, NCI panel, 48 h
[1] = test system: CAKI-1 renal
[2] = test system: HCT-116 colon
[3] = test system: MALME-3M melanoma
[4] = test system: OVCAR-3 ovarian
[5] = test system: SK-MEL-2 melanoma
[6] = test system: SK-OV-3 ovarian
[7] = test system: A498 renal
[8] = test system: HOP-62 NSCLC

| Structure (SMILES) | TGI [1] | TGI [2] | TGI [3] | TGI [4] | TGI [5] | TGI [6] | TGI [7] | TGI [8] |
| --- | --- | --- | --- | --- | --- | --- | --- | --- |
| N#Cc1cn(-c2c3ccccc3nc3ccccc23)c(=O)[nH]c1=O | 45.6 µM | > 100 µM | 24.3 µM | 35.6 µM | 24.9 µM | 33.1 µM | – | – |
| O=C(NC1C(=O)NNC1c1ccccc1Cl)c1ccccc1 (stereo not drawn) | > 100 µM | > 100 µM | > 100 µM | > 100 µM | > 100 µM | > 100 µM | > 100 µM | > 100 µM |
| N#CC1C(=O)NC(=O)C1=O (stereo not drawn) | > 100 µM | > 100 µM | > 100 µM | > 100 µM | > 100 µM | > 100 µM | > 100 µM | > 100 µM |
| NC(=O)c1cc([N+](=O)[O-])cc([N+](=O)[O-])c1 | > 100 µM | > 100 µM | > 100 µM | > 100 µM | > 100 µM | > 100 µM | > 100 µM | > 100 µM |
| COC(=O)/C(=N/NC(C)(C)C)C(C(=O)OC)C(=O)C(=O)Nc1nc2ccc([N+](=O)[O-])cc2s1 (stereo not drawn) | > 100 µM | > 100 µM | > 100 µM | > 100 µM | > 100 µM | > 100 µM | > 100 µM | > 100 µM |
| O=C1c2ccccc2C(=O)c2c1ccc1c2N=C(c2ccc(Br)cc2)CC(c2cccc3ccccc23)N1 (stereo not drawn) | > 100 µM | – | > 100 µM | > 100 µM | > 100 µM | > 100 µM | – | > 100 µM |
| CC1CC(c2ccc(Cl)c(Cl)c2)=Nc2ccccc2S1 (stereo not drawn) | > 100 µM | > 100 µM | > 100 µM | > 100 µM | – | > 100 µM | > 100 µM | > 100 µM |
| COC(=O)C1=C(\O)C[C@@]2(C)CC[C@@H](C(=O)OC)C2C/C=C\1C(=O)OC (stereo partly drawn) | > 100 µM | > 100 µM | > 100 µM | > 100 µM | – | > 100 µM | 75.3 µM | > 100 µM |
| Nc1nc2ncn(CC(O)COC(=O)c3ccccc3)c2c(=O)[nH]1 (stereo not drawn) | > 100 µM | > 100 µM | > 100 µM | > 100 µM | > 100 µM | > 100 µM | > 100 µM | > 100 µM |
| CN1CCc2cc3c4cc2C1Cc1ccc(cc1)Oc1cc(ccc1O)CC1c2c(cc(O)c(c2O4)O3)CCN1C (stereo not drawn) | 34.8 µM | 3.19 µM | 3.56 µM | 11.5 µM | 3.18 µM | 9 µM | – | 11.2 µM |

Source: PubChem BioAssay (NCI)
